Here are results for five compounds from patent US7563895B2, “Quinoxaline compounds” (Janssen Pharmaceutica, N.V., priority 2003, dated 2009).

The target of assay [1] is T1, CCK2 receptor (Cavia porcellus, UniProt H0VZC5).
T1 construct: strips of muscle were dissected and suspended in isolated tissue organ baths; from tissue; host or cells: guinea-pig gastric corpeal muscle strips
T1 sequence (H0VZC5 1-426): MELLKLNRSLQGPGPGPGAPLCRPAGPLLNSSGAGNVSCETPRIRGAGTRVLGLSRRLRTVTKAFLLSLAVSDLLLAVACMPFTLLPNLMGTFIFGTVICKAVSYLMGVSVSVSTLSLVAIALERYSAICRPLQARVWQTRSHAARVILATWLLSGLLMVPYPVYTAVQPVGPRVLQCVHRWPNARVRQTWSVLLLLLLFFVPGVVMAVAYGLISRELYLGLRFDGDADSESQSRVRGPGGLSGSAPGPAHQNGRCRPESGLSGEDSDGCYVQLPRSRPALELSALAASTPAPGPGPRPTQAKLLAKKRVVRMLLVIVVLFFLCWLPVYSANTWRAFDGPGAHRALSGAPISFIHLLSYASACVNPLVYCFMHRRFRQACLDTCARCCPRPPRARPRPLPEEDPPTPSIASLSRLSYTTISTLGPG
Nature of the assay: Guinea-pig gastric corpeal muscle assay (pentagastrin-induced contraction of isolated muscle strips). The following applies: pentagastrin concentration-response curves. As to the method: Guinea-Pig Gastric Corpeal Muscle Assay
CCK2 receptor-mediated muscle contraction was measured in an isolated muscle-strip assay of guinea-pig gastric corpeal muscle according to the methods described by Roberts et al. (S. P. Roberts, E. A. Harper, G. F. Watt, V. P. Gerskowitch, R. A. Hull, N. P. Shankley, and J. W. Black, Br. J. Pharmacol., 1996, 118(7): 1779-1789). In brief, strips of muscle were dissected and suspended in isolated tissue organ baths for isotonic muscle contraction recording. The baths, containing Krebs-Henseleit solution, were maintained at 24° C. and gassed continuously with 95% O2 and 5% CO2. CCK1 receptors known to be present in this assay were blocked using a selective concentration of a suitable CCK1 receptor antagonist (e.g. 2-NAP). The effectiveness of the test compounds was assessed by measuring their effect on contractile concentration-response curves obtained using a well-characterized surrogate hormone gastrin (pentagastrin).

The target in assay [2] is T2, CCK2 receptor (Homo sapiens, UniProt P32239).
T2 construct: Membranes were prepared from the HEKZFP cells after induction; endogenous in cells; host or cells: HEKZFP cells (T-REx-293 with tet-inducible ZFP-VP16 specific for the CCK2R gene), doxycycline-induced; membrane preparation
T2 sequence (P32239 1-447): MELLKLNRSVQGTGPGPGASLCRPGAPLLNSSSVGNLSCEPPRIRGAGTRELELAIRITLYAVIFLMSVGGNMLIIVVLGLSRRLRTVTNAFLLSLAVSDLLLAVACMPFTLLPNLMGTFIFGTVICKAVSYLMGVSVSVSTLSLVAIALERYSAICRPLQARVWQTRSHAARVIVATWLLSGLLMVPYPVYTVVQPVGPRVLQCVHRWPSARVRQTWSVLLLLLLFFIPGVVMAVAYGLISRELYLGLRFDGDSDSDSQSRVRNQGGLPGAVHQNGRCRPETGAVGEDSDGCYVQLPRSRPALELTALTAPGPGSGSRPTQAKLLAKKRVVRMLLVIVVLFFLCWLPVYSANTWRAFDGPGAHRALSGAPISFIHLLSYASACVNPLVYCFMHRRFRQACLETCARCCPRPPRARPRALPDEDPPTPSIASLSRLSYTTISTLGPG
Nature of the assay: CCK2 receptor radioligand binding assay ([125I]-BH-CCK-8S, HEKZFP cell membranes). The following applies: competition with [125I]-BH-CCK-8S, membranes of induced HEKZFP cells, 60 min at 21±3° C., Cheng-Prusoff. The method, then:
Zinc Finger Proteins (ZFP) specific for the CCK2R gene were identified by Sangamo Biosciences. The ZFP domain was fused with the herpes simplex virus VP16 activation domain, and the fusion protein was subsequently cloned into the pcDNA3 mammalian expression vector (Invitrogen, San Diego, Calif.). […] After 2 weeks of selection in culture medium containing […] Zeocin (Invitrogen), sixty drug-resistant stable clones were isolated and analyzed for ZFP expression as well as CCK2R induction upon addition of doxycycline to the culture medium.
HEKZFP cells were grown in DMEM supplemented with L-glutamine (2 mM), penicillin (50 units/mL) and streptomycin (50 μg/mL) and 10% FBS (v/v).
Membranes were prepared from the HEKZFP cells after induction. […] The thawed pellets were homogenized using a Polytron PT-10 (7×1 s). The homogenates were centrifuged for 5 min at 1500 rpm (600×g), and the resulting pellets were discarded. The supernatants were re-centrifuged in order to collect the receptor-membrane pellets (25 min 15,000 rpm; 39,800×g), which were re-suspended in buffer A.
The assay preparation was incubated for 1 h at 21±3° C., and then the assay was terminated by rapid filtration of the preparation under reduced pressure. The loaded filters were washed three times using undiluted PBS (100 μL), and then 100 μL of scintillation fluid was added to the filter plate. Bound radioactivity was determined using a Topcount (Packard BioScience, Meriden, Conn.) with a count time of 1 min. […] To validate the radioligand concentration and incubation time for the assay, saturation and kinetic binding studies were also conducted (see M. F. Morton, The Pharmacological Characterization of Cholecystokinin Receptors in the Human Gastrointestinal Tract. PhD Thesis, University of London, 2000). […] The assay was then terminated according to the procedure outlined above.
The pKi values were determined using the equation of Y.-C.
To circumvent problems associated with computer-assisted data analysis of compounds with low affinity, the data obtained in the current study were weighed according to a method described by Morton. In brief, 100% and 0% specific binding were defined independently using total binding and binding obtained in the presence of a high concentration of the reference antagonist, 2-NAP.

With `C[C@@H](NC(=O)c1ccc(Br)cc1NS(=O)(=O)c1cccc2nccnc12)c1ccc(F)cc1F` [Example 2, (R)-4-Bromo-N-[1-(2,4-difluoro-phenyl)-ethyl]-2-(quinoxaline-5-sulfonylamino)-benzamide], the “behaviour in the assay (mode of antagonism)” value in assay [1] was “competitive antagonist”. Besides, the Kb in assay [1] (CCK1 receptors blocked, 24° C., read-out: pKB value (converted)) was 1.58 nM. This compound showed a Ki in assay [2] of 20 nM.
Take `C[C@@H](NC(=O)c1ccc(C#N)cc1NS(=O)(=O)c1cccc2nccnc12)c1ccc(F)cc1F` [Example 38, (R)-4-Cyano-N-[1-(2,4-difluoro-phenyl)ethyl]-2-(quinoxaline-5-sulfonylamino)-benzamide]: in assay [2], the Ki is 316 nM.
`O=C(N[C@H](CF)c1ccc(F)cc1)c1ccc(I)cc1NS(=O)(=O)c1cccc2nccnc12` [Example 73, (S)-N-[2-Fluoro-1-(4-fluoro-phenyl)-ethyl]-4-iodo-2-(quinoxaline-5-sulfonylamino)-benzamide] gave a Ki in assay [2] of 79.4 nM. Compared with the last compound, the Ki is about 4-fold lower.
The same measure, in the same setting: the value for `CN(Cc1ccc(Cl)cc1)C(=O)c1ccc(I)cc1NS(=O)(=O)c1cccc2nccnc12` [Example 48, N-(4-Chloro-benzyl)-4-iodo-N-methyl-2-(quinoxaline-5-sulfonylamino)-benzamide] was 20 nM.
The same measure, in the same setting: the value for `C[C@H](c1ccccc1)N(C)C(=O)c1ccc(Br)cc1NS(=O)(=O)c1cccc2nccnc12` [Example 33, (R)-4-Bromo-N-methyl-N-(1-phenyl-ethyl)-2-(quinoxaline-5-sulfonylamino)-benzamide] was 12.6 nM.

For orientation: Ki means a measure of affinity in units of concentration, obtained from inhibition or displacement.
